Data published in US11732277B2, “Cellular production of pure iron oxide nanoparticles” (NANOBACTERIE, priority 2018, dated 2023).
Where two headings read alike, the source gives them in different places.

Legend:
[1] = test system: MSR-1 magnetotactic bacteria; type: cell-based; settings: for magnetic response: condition 4, individual vitamin replacing yeast extract, at D13; for Magnetic response (%): condition 4, individual vitamins, D13
Method: Measurement of the magnetic response of living magnetotactic bacteria using optical microscopic observations of these bacteria under the application of a magnetic field: 1 mL of a suspension of MSR-1 magnetotactic bacteria was centrifugated at 14500 rpm for 10 minutes. The growth medium was removed and replaced by a volume of PBS 0.1× to reach an OD565 nm of 0.5. 1 μL of this suspension of MSR-1 magnetotactic bacteria was deposited on a parallelipedic microscope slide (Menzel-Glaser, 24 mm×60 mm, […]) for microscopic observation using a Zeiss Primo Vert optical microscope with X40 magnification. Four small cubic Neodinium magnets of strength 1.3 T (Supermagnet, N42 W-10-N 10×10×10 mm) were positioned on the microscope's platform at a distance from the suspension of bacteria of ˜2 cm in such a way that it either generated a magnetic field parallel to the position of the observer or to the line between the two binoculars (position 1) or perpendicular to this position (position 2). 20 seconds after positioning the magnet in position 1 or 2, the percentage of bacteria aligned in the direction of the magnetic field was estimated, by considering 200 magnetotactic bacteria. The bacteria that were not aligned in the same direction as the magnetic field generated by the magnet were considered as non-magnetic. Their number is designated as nBNM. The bacteria that were aligned in the direction of the magnetic field generated by the magnet were considered as magnetic. Their number was designated as nBM. The percentage of magnetic bacteria was then given by nBM/(nBM+nBNM). A positive magnetic response of magnetotatic bacteria corresponded to nBM/(nBM+nBNM)>0.5. A negative magnetic response of magnetotatic bacteria corresponds to nBM/(nBM+nBNM)<0.5.
In some cases, the percentage of magnetic bacteria can be measured by optical observation under microscope in the presence of a magnetic field.

[2] = test system: MSR-1 magnetotactic bacteria; type: cell-based; settings: for Growth ratio (ODD13/ODD6) / Optical density following pre-growth (ODD6) / Optical density following growth (ODD13): condition 4, individual vitamins; for Optical density following pre-growth (ODD6) / Optical density following growth (ODD13): OD at 565 nm; for Optical density following pre-growth (ODD6): day 6; for Optical density following growth (ODD13): day 13; for OD565 nmD13/OD565 nmD6: condition 4, individual vitamin replacing yeast extract, mineral elixir CB3, 50 mL tubes
Method: Optical density measurements of suspensions of whole magnetotactic bacteria to assess bacterial growth: The optical density of the different suspensions of magnetotactic bacteria was measured at 565 nm, designated as OD565 nm, using a Secomam UviLine9400 spectrophotometer. The value of OD565 nm is proportional to the concentrations of bacteria in the suspensions. […]
This example describes the experimental protocol used to determine the reduced medium replacing the yeast extract that enables the growth of MSR-1 magnetotactic bacteria and the synthesis of magnetosomes by these bacteria. In this example we used non-pharmaceutical grade chemicals for the preparation of the growth media. The compositions of pre-growth and growth media, in one liter of de-ionized water, are indicated in table 2 (condition 2), table 3 (condition 3), and table 4 (condition 4). During the first day of the experiment (D1), a first step consists in collecting the tubes of 15 ml containing 5 mL of MSR-1 cellular stock tube from the freezer at −80° C., in thawing the tubes by letting them at room temperature for 10 minutes. In a hood, we collected from these tubes 100 μl comprising 5.10^6 MSR-1 magnetotactic bacteria that we have inserted in a 50 mL tube comprising 8 mL of filtered pre-growth medium of either condition 2 (table 2), condition 3 (table 3), or condition 4 (table 4). The 50 ml tubes were incubated for 6 days between D1 and D6 in an incubator at 29.5° C. under shaking conditions at 150 rpm. A second step consisted in adding an iron source to the growth media to enable the synthesis of magnetosomes by MSR-1 bacteria. After 6 days of pre-growth, at D6, the 50 ml tubes were placed in a hood. 30 ml of filtered growth medium were then added to the 50 mL tubes (condition 2, table 2, condition 3, table 3, condition 4, table 4) at D6 and the bacteria grew between D6 and D13. […] In contrast, the magnetic response is 0 for conditions Vit5X, Vit10X (condition 3) and very low for conditions CP, I, AA, P (condition 4). […]

Nc1ccc(C(=O)O)cc1 [AA, p-Aminobenzoic acid]
magnetic response [1]: very low | Magnetic response (%) [1]: 20% | Growth ratio (ODD13/ODD6) [2]: 6.7 | Optical density following pre-growth (ODD6) [2]: 0.12 | Optical density following growth (ODD13) [2]: 0.8

O=C(O)CCCC[C@@H]1SC[C@@H]2NC(=O)N[C@@H]21 [Biotin]
magnetic response [1]: 90% | Magnetic response (%) [1]: >90%

O[C@H]1[C@H](O)[C@@H](O)[C@H](O)[C@@H](O)[C@H]1O [I, Inositol]
magnetic response [1]: very low | Magnetic response (%) [1]: 20% | Growth ratio (ODD13/ODD6) [2]: 2.4 | Optical density following pre-growth (ODD6) [2]: 0.33 | Optical density following growth (ODD13) [2]: 0.8

Cc1ncc(CO)c(CO)c1O.Cl [P, Pyridoxine HCl]
magnetic response [1]: very low | Magnetic response (%) [1]: 5% | Growth ratio (ODD13/ODD6) [2]: 2.8 | Optical density following pre-growth (ODD6) [2]: 0.25 | Optical density following growth (ODD13) [2]: 0.7

Cc1cc2nc3c(=O)[nH]c(=O)nc-3n(C[C@H](O)[C@H](O)[C@H](O)CO)c2cc1C [Riboflavin]
magnetic response [1]: 90% | Magnetic response (%) [1]: >90% | OD565 nmD13/OD565 nmD6 [2]: 4.8 | Growth ratio (ODD13/ODD6) [2]: 4.8 | Optical density following pre-growth (ODD6) [2]: 0.19 | Optical density following growth (ODD13) [2]: 0.92

Nc1nc2ncc(CNc3ccc(C(=O)N[C@@H](CCC(=O)O)C(=O)O)cc3)nc2c(=O)[nH]1 [folic acid, Folic acid]
magnetic response [1]: 90% | Magnetic response (%) [1]: 50% | OD565 nmD13/OD565 nmD6 [2]: 2.9 | Growth ratio (ODD13/ODD6) [2]: 2.9 | Optical density following pre-growth (ODD6) [2]: 0.4 | Optical density following growth (ODD13) [2]: 1.14

O=C(O)c1cccnc1 [nicotinic acid, Nicotinic acid]
magnetic response [1]: 90% | Magnetic response (%) [1]: >90% | OD565 nmD13/OD565 nmD6 [2]: 2.4 | Growth ratio (ODD13/ODD6) [2]: 2.4 | Optical density following pre-growth (ODD6) [2]: 0.27 | Optical density following growth (ODD13) [2]: 0.65

Calcium pantothenate [CP]
magnetic response [1]: very low | Magnetic response (%) [1]: 5% | Growth ratio (ODD13/ODD6) [2]: 3.3 | Optical density following pre-growth (ODD6) [2]: 0.3 | Optical density following growth (ODD13) [2]: 0.98

Thiamine HCl
magnetic response ([1]; listed as thiamin HCl, HCl): 90% | Magnetic response (%) [1]: >90% | OD565 nmD13/OD565 nmD6 ([2]; listed as thiamin HCl, HCl): 5.8 | Growth ratio (ODD13/ODD6) [2]: 5.8 | Optical density following pre-growth (ODD6) [2]: 0.26 | Optical density following growth (ODD13) [2]: 1.51
